T1: KDM4E (JMJD2E); KDM4E(1-377) (Homo sapiens, UniProt B2RXH2)
T1 construct: residues 1-377 (JmjN and JmjC domains); recombinant, E. coli BL21(DE3)-R3 with pRARE2
T1 sequence (B2RXH2 1-377): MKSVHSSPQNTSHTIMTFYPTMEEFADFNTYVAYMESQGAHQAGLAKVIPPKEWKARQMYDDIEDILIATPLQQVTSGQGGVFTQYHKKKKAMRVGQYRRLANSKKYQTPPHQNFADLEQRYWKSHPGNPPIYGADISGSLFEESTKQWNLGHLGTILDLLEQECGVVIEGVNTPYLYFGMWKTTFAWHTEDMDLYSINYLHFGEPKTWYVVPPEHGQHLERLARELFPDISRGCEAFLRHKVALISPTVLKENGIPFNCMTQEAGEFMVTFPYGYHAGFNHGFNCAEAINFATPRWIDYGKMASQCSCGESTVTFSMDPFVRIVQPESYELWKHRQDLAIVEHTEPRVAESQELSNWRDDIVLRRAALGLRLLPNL

B1: KDM4E (JMJD2E); KDM4E(1-377) (Homo sapiens) (protein)
chain: T1 sequence (B2RXH2 1-377)
notes: residues 1-377 (JmjN and JmjC domains); recombinant, E. coli BL21(DE3)-R3 with pRARE2

Target: T1, KDM4E (JMJD2E); KDM4E(1-377)
Experiment: RapidFire MS demethylation assay
Assay type: biochemical
Settings: read-out: pIC50 ± s.e.m. / inhibition of H3(1-15)K9me2 demethylation (converted)

| IC50 [µM] | Molecule |
| --- | --- |
| 11.5 | O=C(O)CC[C@@H](O)C(=O)O [D-2HG] |
| 4.79 | CN(C)CCCNC(=O)c1ccc(-c2cc(O)c3ncccc3c2)cc1 [ML324] |
| 148 | O=C(O)CCC(=O)O [succinate] |
| 182 | CCN(CCN(C)C)C(=O)CNCc1cc(C(N)=O)ccn1 [KDOAM25] |
| 2.4 | CC(=O)N(O)CCCCCNC(=O)CCC(=O)N(O)CCCCCNC(=O)CCC(=O)N(O)CCCCCN [deferoxamine] |
| 13.5 | O=C(O)CC[C@H](O)C(=O)O [L-2HG] |
| 4.47 | CC(C)c1c(-c2ccccc2)[nH]c2c(C#N)cnn2c1=O [CPI-455] |
| 2.09 | CCN(CCN(C)C)C(=O)CNCc1cc(C(=O)O)ccn1 [KDM5-C49] |

| Molecule | IC50 [µM] |
| --- | --- |
| O=C(O)/C=C/C(=O)O [fumarate] | 1950 |

Target: T1, KDM4E (JMJD2E); KDM4E(1-377)
Experiment: RapidFire MS demethylation assay
Assay type: biochemical
Settings: KDM activity: 5 µM H3(1-15)K9me2, 0.25 µM enzyme, 10 µM Fe(II), 100 µM ascorbate, 10 µM 2OG, 50 mM HEPES pH 7.5, 15 min; iron chelator, may act by chelating iron in solution; unreliable (printed s.e.m)
Text: RapidFire MS demethylation assay on KDM4E (JMJD2E); KDM4E(1-377)

| pIC50 ± s.e.m. / inhibition of H3(1-15)K9me2 demethylation | Molecule |
| --- | --- |
| 5.82 ± 6.53 -log10(M) | O=C(O)CN(CCN(CC(=O)O)CC(=O)O)CC(=O)O [EDTA] |

Substrate: O=C(O)CCC(=O)C(=O)O
Experiment: steady-state kinetics (supplement)
Assay type: biochemical, Homo sapiens
Settings: 50 mM HEPES pH 7.5, Fe(II), ascorbate, approximate value, peptide substrate not stated

| Molecule | Km [µM] |
| --- | --- |
| B1 | 10 |

Reference: PMC5915715, “Inhibitors of both the N-methyl lysyl- and arginyl-demethylase activities of the JmjC oxygenases” (Philosophical Transactions of the Royal Society B: …, 2018)
